system: Aβ42 levels in the extracellular medium; experiment: FRET (HTRF) assay, Aβ42 level of the extracellular medium of SH-SY5Y-APP cells; assay type: cell-based; settings: Homo sapiens, concentration at which reduction of Aβ42 level was half of the maximum reduction, read-out: Ab42 Potency
Protocol: Compounds were evaluated for activity in modulating Aβ42 and Aβ40 levels in the extracellular medium using a homogeneous time-resolved fluorescence (HTRF) assay as follows.
For the HTRF assay, either 5 or 10 μl of supernatant from treated cells was added to 10 or 15 μl of labeled antibody pairs, for a total volume of 20 μl, and incubated for 20-24 hours at 4° C. The labeled antibody pairs were either 8000 pg B436-XL665 and 400 pg B113 Europium, for assessing Aβ40 levels, or 8000 pg B436-XL665 and 400 pg A387 Europium, for assessing Aβ42 levels, diluted in 50 mM NaPO4, 0.2% BSA, 0.5M KF, pH 7. The fluorescence was read on a BMG Rubystar at 620 nm and 665 nm.

SMILES	EC50 [µM]
CCN(CC)CCN(C)c1ccc(Nc2nc(-c3ccc(-n4ccnc4)cc3)cs2)c(C(F)(F)F)c1 [Compound 219]	1.1 to 5
FC(F)(F)c1cc(NC2CCCC2)ccc1Nc1nc(-c2ccc(-n3ccnc3)cc2)cs1 [Compound 220]	10.1 to 30
FC(F)(F)c1cc(N2CC=CC2)ccc1Nc1nc(-c2ccc(-n3ccnc3)cc2)cs1 [Compound 221]	1.1 to 5
FC(F)(F)c1cc(NCCN2CCCC2)ccc1Nc1nc(-c2ccc(-n3ccnc3)cc2)cs1 [Compound 222]	1.1 to 5
FC(F)(F)c1cc(NCc2ccccn2)ccc1Nc1nc(-c2ccc(-n3ccnc3)cc2)cs1 [Compound 223]	5.1 to 10
CNCCN(C)c1ccc(Nc2nc(-c3ccc(-n4ccnc4)cc3)cs2)c(C(F)(F)F)c1 [Compound 224]	1.1 to 5
Cc1cn(-c2ccc(-c3csc(Nc4ccc(N5CCOCC5)c(Cl)c4)n3)cc2)cn1 [Compound 225]	1.1 to 5
Cc1cccc(Nc2nc(-c3ccc(N4CCN(C)CC4)cc3)cs2)c1 [Compound 226]	1.1 to 5
CCN(CC)c1ccc(Nc2nc(-c3ccc(-n4cnc(C)c4)cc3C(F)(F)F)cs2)c(C)c1 [Compound 227]	5.1 to 10
CCN(CCO)c1ccc(Nc2nc(-c3ccc(-n4cnc5ccccc54)cc3)cs2)c(C)c1 [Compound 228]	5.1 to 10
Cc1cn(-c2ccc(-c3csc(Nc4ccc(N5CCOCC5)c(Cl)c4)n3)c(C(F)(F)F)c2)cn1 [Compound 229]	5.1 to 10
CCN(CCOC)c1ccc(Nc2nc(-c3ccc(-n4ccnc4)cc3)cs2)c(C)c1 [Compound 230]	1.1 to 5
CCN(CCOC)c1ccc(Nc2nc(-c3ccc(-n4cnc(C)c4)cc3)cs2)c(C)c1 [Compound 231]	0.2 to 1
CCN(CCOC)c1ccc(Nc2nc(-c3ccc(-n4cnc(C)c4)cc3C(F)(F)F)cs2)c(C)c1 [Compound 232]	5.1 to 10
NC(=O)c1ncn(-c2ccc(-c3csc(Nc4ccc(N5CCOCC5)c(Cl)c4)n3)cc2)n1 [Compound 233]	1.1 to 5
CCc1cccc(Nc2nc(-c3ccc(N4CCN(C)CC4)cc3)cs2)c1 [Compound 234]	1.1 to 5
Cc1cn(-c2ccc(-c3csc(Nc4cc(C)c(C)cc4C)n3)cc2)cn1 [Compound 235]	0.2 to 1
Cc1cc(C)c(Nc2nc(-c3ccc(-n4cnc(Br)c4)cc3)cs2)cc1C [Compound 236]	0.2 to 1
Cc1cn(-c2ccc(-c3csc(Nc4cc(Cl)c(Cl)cc4Cl)n3)cc2)cn1 [Compound 237]	0.2 to 1
Cc1cn(-c2ccc(-c3csc(Nc4c(Cl)cc(Cl)cc4Cl)n3)cc2)cn1 [Compound 238]	1.1 to 5
CCc1cc(N2CCOCC2)ccc1Nc1nc(-c2ccc(-n3ccnc3)cc2)cs1 [Compound 239]	1.1 to 5
CCc1cc(N2CCN(C)CC2)ccc1Nc1nc(-c2ccc(-n3ccnc3)cc2)cs1 [Compound 240]	1.1 to 5
CCc1cc(N(CC)CC)ccc1Nc1nc(-c2ccc(-n3ccnc3)cc2)cs1 [Compound 241]	1.1 to 5
Cc1cn(-c2ccc(-c3nc(Nc4cc(C)c(C)cc4C)sc3C)cc2)cn1 [Compound 242]	0.2 to 1
Cc1cn(-c2ccc(-c3nc(Nc4cc(C)c(C)cc4C)sc3C)cc2Br)cn1 [Compound 243]	1.1 to 5
Cc1cc(C)c(Nc2nc(-c3ccc(-n4nccn4)cc3)cs2)cc1C [Compound 244]	1.1 to 5

SMILES	EC50 [µM]
Cc1cn(-c2ccc(-c3nc(Nc4cc(Cl)c(Cl)cc4Cl)sc3C)cc2)cn1 [Compound 245]	1.1 to 5
Cc1cnn(-c2ccc(-c3nc(Nc4c(Cl)cc(Cl)cc4Cl)sc3C)cc2)c1 [Compound 246]	1.1 to 5
CCN(CC)c1ccc(Nc2nc(-c3ccc(-n4cnc(C)c4)nc3)cs2)c(C)c1 [Compound 247]	< 0.2
CCN(CC)c1ccc(Nc2nc(-c3ccc(-c4c[nH]c(C)n4)cc3)cs2)c(C)c1 [Compound 248]	5.1 to 10
CCN(CC)c1ccc(Nc2nc(-c3ccc(-n4cc(C)nc4C)cc3)cs2)c(C)c1 [Compound 249]	1.1 to 5
Cc1cc(C)c(Nc2nc(-c3ccc(-n4cnc(C)c4)cc3)cs2)c(C)c1 [Compound 250]	0.2 to 1
Cc1cc(C)c(Nc2nc(-c3ccc(-n4cnc(Br)c4)cc3)cs2)c(C)c1 [Compound 251]	1.1 to 5
Cc1ccc(N2CCCCC2)cc1Nc1nc(-c2ccc(-n3ccnc3)cc2)cs1 [Compound 252]	1.1 to 5
Cc1ccc(N2CCOCC2)cc1Nc1nc(-c2ccc(-n3ccnc3)cc2)cs1 [Compound 253]	0.2 to 1
Cc1ccc(N2CCSCC2)cc1Nc1nc(-c2ccc(-n3ccnc3)cc2)cs1 [Compound 254]	0.2 to 1
Cc1ccc(N2CCN(C)CC2)cc1Nc1nc(-c2ccc(-n3ccnc3)cc2)cs1 [Compound 255]	0.2 to 1
Cc1ccc(NCC2CCN(C)CC2)cc1Nc1nc(-c2ccc(-n3ccnc3)cc2)cs1 [Compound 256]	1.1 to 5
CCc1ccc(C)nc1Nc1ccc(C)c(Nc2nc(-c3ccc(-n4ccnc4)cc3)cs2)c1 [Compound 257]	5.1 to 10
CNCCN(C)c1ccc(C)c(Nc2nc(-c3ccc(-n4ccnc4)cc3)cs2)c1 [Compound 258]	1.1 to 5
Cc1ccc(N(C)C)cc1Nc1nc(-c2ccc(-n3ccnc3)cc2)cs1 [Compound 259]	0.2 to 1
Cc1cn(-c2ccc(-c3csc(Nc4ccc(N5CC(C)OC(C)C5)cc4)n3)cc2)cn1 (centres unmarked) [Compound 260]	1.1 to 5
CCN(CCOC)c1ccc(Nc2nc(-c3ccc(-n4cnc(C)c4)nc3)cs2)c(C)c1 [Compound 261]	0.2 to 1
Cc1cn(-c2ccc(-c3csc(Nc4cc(C)c(C)cc4C)n3)cn2)cn1 [Compound 262]	0.2 to 1
COc1cc(-n2cnc(C)c2)ccc1-c1csc(Nc2cc(C)c(C)cc2C)n1 [Compound 263]	0.2 to 1
COc1ccc(OC)c(Nc2nc(-c3ccc(-n4cnc(C)c4)cc3)cs2)c1 [Compound 264]	0.2 to 1
CCN(CC)c1ccc(C)c(Nc2nc(-c3ccc(-n4ccnc4)cc3)cs2)c1 [Compound 265]	< 0.2
CSc1cccc(Nc2nc(-c3ccc(-n4cnc(Br)c4)cc3)cs2)c1 [Compound 266]	5.1 to 10
COc1cc(C)c(Nc2nc(-c3ccc(-n4cnc(C)c4)cc3)cs2)cc1OC [Compound 267]	1.1 to 5
CCN(CC)c1ccc(C)c(Nc2nc(-c3ccc(-n4cnc(C)c4)cc3)cs2)c1 [Compound 268]	< 0.2
Cc1cn(-c2ccc(-c3csc(Nc4cc(C)c(O)cc4C)n3)cc2)cn1 [Compound 269]	5.1 to 10
CCN(CC)c1ccc(C)c(Nc2nc(-c3ccc(-n4cnc(C)c4)nc3)cs2)c1 [Compound 270]	< 0.2

SMILES	EC50 [µM]
CCOc1cc(C)c(Nc2nc(-c3ccc(-n4cnc(C)c4)cc3)cs2)cc1C [Compound 271]	< 0.2
CCc1cn(-c2ccc(-c3csc(Nc4ccc(N(CC)CC)cc4C)n3)cc2)cn1 [Compound 272]	0.2 to 1
CCN(CC)c1ccc(N(CC)c2nc(-c3ccc(-n4cnc(C)c4)cc3)cs2)c(C)c1 [Compound 273]	0.2 to 1
CCN(CC)c1ccc(Nc2nc(-c3ccc(-n4cc(C(C)=O)nn4)cc3)cs2)c(C)c1 [Compound 274]	1.1 to 5
CCN(CC)c1ccc(Nc2nc(-c3ccc(-n4cc(C(C)O)nn4)cc3)cs2)c(C)c1 (centres unmarked) [Compound 275]	1.1 to 5
Cc1cn(-c2ccc(-c3csc(Nc4cc(N5CCOCC5)ccc4C)n3)cn2)cn1 [Compound 276]	< 0.2
Cc1cn(-c2ccc(-c3csc(Nc4cc(-n5cccc5)ccc4C)n3)cn2)cn1 [Compound 277]	< 0.2
Cc1cn(-c2ccc(-c3nc(Nc4cc(-n5cccc5)ccc4C)sc3C)cc2)cn1 [Compound 278]	0.2 to 1
Cc1ccc(-n2cccc2)cc1Nc1nc(-c2ccc(-n3cnc(Br)c3)cc2)cs1 [Compound 279]	0.2 to 1
Cc1cn(-c2ccc(-c3csc(Nc4cc(C)c(OCC5CC5)cc4C)n3)cc2)cn1 [Compound 280]	< 0.2
Cc1cn(-c2ccc(-c3csc(Nc4cc(N5CCSCC5)ccc4C)n3)cn2)cn1 [Compound 281]	< 0.2
Cc1cn(-c2ccc(-c3csc(Nc4cc(N(C)C)ccc4C)n3)cn2)cn1 [Compound 282]	< 0.2
Cc1cn(-c2ccc(-c3csc(Nc4cc(N5CCCCC5)ccc4C)n3)cn2)cn1 [Compound 283]	< 0.2
CCCN(CC)c1ccc(C)c(Nc2nc(-c3ccc(-n4cnc(C)c4)nc3)cs2)c1 [Compound 284]	< 0.2
CCN(CC)c1cc(C)c(Nc2nc(-c3ccc(-n4cnc(C)c4)cc3)cs2)cc1C [Compound 285]	< 0.2
CCN(CC)c1cc(C)c(Nc2nc(-c3ccc(-n4cnc(C)c4)nc3)cs2)cc1C [Compound 286]	< 0.2
CCOc1cc(C)c(Nc2nc(-c3ccc(-n4cnc(C)c4)nc3)cs2)cc1C [Compound 287]	< 0.2
CCN(CC)c1cc(Nc2nc(-c3ccc(-n4cnc(C)c4)cc3)cs2)c(C)cc1C [Compound 288]	< 0.2
CCN(CC)c1cc(Nc2nc(-c3ccc(-n4cnc(C)c4)nc3)cs2)c(C)cc1C [Compound 289]	< 0.2
CCOc1cc(C)c(Nc2nc(-c3ccc(-n4ccnc4)cc3)cs2)cc1C [Compound 290]	< 0.2
CCN(CC)c1cc(Nc2nc(-c3ccc(-n4ccnc4)cc3)cs2)c(C)cc1C [Compound 291]	< 0.2
CCN(CC)c1cc(C)c(Nc2nc(-c3ccc(-n4ccnc4)cc3)cs2)cc1C [Compound 292]	< 0.2
Cc1cn(-c2ccc(-c3csc(Nc4cc(-n5cccc5)ccc4C)n3)cc2)cn1 [Compound 293]	0.2 to 1
COc1cc(C)c(Nc2nc(-c3ccc(-n4ccnc4)cc3)cs2)cc1C(C)C [Compound 294]	< 0.2
COc1cc(C)c(Nc2nc(-c3ccc(-n4cnc(C)c4)cc3)cs2)cc1C(C)C [Compound 295]	< 0.2

Source: patent US8017629B2, “Compounds and uses thereof in modulating amyloid β” (Neurogenetic Pharmaceuticals, Inc., priority 2003, dated 2011)
